The target of the experiment is α-glucosidase. Briefly: pNPG hydrolysis, absorbance at […] nm, commercial enzyme. It is filed as biochemical.
`O=c1cc(-c2ccc(O)cc2)oc2cc(O[C@@H]3O[C@H](CO)[C@@H](O)[C@H](O)[C@H]3O)cc(O)c12` [AG, apigenin-7-O-β-(6″-O)-D-glucoside]: the IC50 (commonly the concentration that gives 50% inhibition) stood at 532 µM. In turn, `O=c1cc(-c2ccc(O)cc2)oc2cc(O)cc(O)c12` [Apigenin] had an IC50 of 525 µM. For `O=C(O)CCC(=O)OC[C@H]1O[C@@H](Oc2cc(O)c3c(=O)cc(-c4ccc(O)cc4)oc3c2)[C@H](O)[C@@H](O)[C@@H]1O` [SAG, apigenin-7-O-β-(6″-O-succinyl)-D-glucoside] the value was 485 µM.

For the origin of these results see paper PMC9866095, “Efficient Synthesis and In Vitro Hypoglycemic Activity of Rare Apigenin Glycosylation Derivatives” (Molecules, 2023).
